Assay results from paper PMC8698521 (RSC Advances, 2021).

Experiments:
Experiment in all cases: Glycosidase inhibition, spectrophotometric p-nitrophenyl glycoside assay
[1] = target: α-Glucosidase from Saccharomyces cerevisiae (Saccharomyces cerevisiae, UniProt P53341); conditions: pH 7.2, read-out: Percentage inhibition (%) at 1 mM concentration of the inhibitor
[2] = system: β-Glucosidase from almonds; conditions: 1 mM inhibitor; 37 °C, 30 min; NI = no inhibition up to 20 mM
[3] = system: β-Mannosidase from Helix pomatia
[4] = target: T1, α-Mannosidase from jack bean (Canavalia ensiformis, UniProt C0HJB3); conditions: for inhibition at 1000 µM: pH 4.5, read-out: Percentage inhibition (%) at 1 mM concentration of the inhibitor
T1 sequence (C0HJB3 1-981): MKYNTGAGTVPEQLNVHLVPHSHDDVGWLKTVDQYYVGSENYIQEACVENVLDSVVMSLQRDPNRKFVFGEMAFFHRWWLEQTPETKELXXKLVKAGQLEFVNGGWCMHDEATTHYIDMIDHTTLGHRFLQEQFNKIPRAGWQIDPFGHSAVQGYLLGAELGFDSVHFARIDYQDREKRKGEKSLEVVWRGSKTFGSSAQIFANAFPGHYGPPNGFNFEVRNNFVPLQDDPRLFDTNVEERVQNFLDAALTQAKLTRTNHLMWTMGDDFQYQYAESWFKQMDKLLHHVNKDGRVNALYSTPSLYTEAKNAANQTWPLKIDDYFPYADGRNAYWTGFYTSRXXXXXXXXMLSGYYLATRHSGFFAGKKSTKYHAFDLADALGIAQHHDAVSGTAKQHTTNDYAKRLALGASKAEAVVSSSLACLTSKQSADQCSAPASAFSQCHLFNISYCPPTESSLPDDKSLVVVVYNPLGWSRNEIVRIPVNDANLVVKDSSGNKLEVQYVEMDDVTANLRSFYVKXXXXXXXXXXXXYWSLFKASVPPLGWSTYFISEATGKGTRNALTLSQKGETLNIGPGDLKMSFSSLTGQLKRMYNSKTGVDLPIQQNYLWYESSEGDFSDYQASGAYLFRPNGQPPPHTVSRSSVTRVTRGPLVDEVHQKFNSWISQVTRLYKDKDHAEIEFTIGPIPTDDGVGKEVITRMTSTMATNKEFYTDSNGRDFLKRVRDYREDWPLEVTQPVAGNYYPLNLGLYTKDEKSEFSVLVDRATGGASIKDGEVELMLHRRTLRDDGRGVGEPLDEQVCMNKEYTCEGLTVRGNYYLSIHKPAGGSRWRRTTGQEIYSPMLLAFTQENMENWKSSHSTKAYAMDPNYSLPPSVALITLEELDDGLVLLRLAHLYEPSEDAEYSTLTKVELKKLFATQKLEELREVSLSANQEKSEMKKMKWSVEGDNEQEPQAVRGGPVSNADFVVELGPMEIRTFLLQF

[5] = target: α-Galactosidase from green coffee beans (Coffea arabica, UniProt Q42656)
Sequence of α-Galactosidase from green coffee beans (Q42656 16-378): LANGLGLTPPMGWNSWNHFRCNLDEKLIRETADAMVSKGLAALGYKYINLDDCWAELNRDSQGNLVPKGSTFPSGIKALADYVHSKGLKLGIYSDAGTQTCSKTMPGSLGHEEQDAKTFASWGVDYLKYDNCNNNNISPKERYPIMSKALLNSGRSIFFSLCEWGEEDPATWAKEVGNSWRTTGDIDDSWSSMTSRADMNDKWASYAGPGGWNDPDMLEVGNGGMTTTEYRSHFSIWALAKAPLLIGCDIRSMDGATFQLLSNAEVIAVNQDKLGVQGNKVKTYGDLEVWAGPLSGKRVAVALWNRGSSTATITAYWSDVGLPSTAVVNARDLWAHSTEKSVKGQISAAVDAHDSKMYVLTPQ

[6] = target: T2, β-Galactosidase from Aspergillus oryzae (Aspergillus oryzae, UniProt Q2UCU3)
T2 sequence (Q2UCU3 19-1005): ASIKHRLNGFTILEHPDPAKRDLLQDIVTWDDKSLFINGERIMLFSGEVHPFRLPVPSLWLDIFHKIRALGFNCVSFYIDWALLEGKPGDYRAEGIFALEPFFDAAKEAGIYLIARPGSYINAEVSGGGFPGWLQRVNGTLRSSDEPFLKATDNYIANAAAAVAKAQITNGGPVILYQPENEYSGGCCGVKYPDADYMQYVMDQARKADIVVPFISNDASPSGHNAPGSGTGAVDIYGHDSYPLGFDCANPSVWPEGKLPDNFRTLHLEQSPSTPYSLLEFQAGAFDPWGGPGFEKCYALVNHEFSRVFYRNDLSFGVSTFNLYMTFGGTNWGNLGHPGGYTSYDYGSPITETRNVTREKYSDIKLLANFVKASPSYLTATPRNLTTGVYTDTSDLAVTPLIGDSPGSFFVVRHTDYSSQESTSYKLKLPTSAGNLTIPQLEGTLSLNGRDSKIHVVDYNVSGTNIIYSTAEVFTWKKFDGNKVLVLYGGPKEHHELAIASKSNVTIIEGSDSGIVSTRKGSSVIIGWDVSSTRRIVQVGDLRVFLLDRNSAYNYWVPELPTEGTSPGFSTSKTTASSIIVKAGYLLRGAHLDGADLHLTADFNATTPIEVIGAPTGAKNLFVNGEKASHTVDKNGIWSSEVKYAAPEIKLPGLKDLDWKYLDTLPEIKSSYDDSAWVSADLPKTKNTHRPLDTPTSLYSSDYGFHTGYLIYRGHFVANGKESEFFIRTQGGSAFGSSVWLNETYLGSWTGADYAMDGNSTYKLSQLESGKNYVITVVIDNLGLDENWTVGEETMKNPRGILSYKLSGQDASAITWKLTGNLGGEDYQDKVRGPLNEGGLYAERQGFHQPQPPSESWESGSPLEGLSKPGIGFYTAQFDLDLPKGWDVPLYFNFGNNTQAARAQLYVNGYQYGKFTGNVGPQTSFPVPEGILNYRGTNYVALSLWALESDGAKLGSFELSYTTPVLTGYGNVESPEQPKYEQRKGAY

Sequence of α-Glucosidase from Saccharomyces cerevisiae (P53341 whole entry): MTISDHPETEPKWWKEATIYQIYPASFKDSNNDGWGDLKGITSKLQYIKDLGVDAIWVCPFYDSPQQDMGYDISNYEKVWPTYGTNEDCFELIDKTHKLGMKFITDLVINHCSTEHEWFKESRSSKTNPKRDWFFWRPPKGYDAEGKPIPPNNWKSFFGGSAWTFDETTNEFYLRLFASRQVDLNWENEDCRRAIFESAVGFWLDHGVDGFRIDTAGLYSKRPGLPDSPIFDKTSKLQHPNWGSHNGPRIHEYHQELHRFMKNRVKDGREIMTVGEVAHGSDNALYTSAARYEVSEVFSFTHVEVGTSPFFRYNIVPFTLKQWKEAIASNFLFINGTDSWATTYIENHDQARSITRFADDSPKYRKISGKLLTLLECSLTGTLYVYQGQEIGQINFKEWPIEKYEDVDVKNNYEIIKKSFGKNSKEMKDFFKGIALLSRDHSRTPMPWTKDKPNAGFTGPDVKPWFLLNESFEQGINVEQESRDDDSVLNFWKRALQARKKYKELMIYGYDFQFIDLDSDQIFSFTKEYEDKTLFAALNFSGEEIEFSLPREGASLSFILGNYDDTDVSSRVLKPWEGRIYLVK

Row | inhibition at 1000 µM [1] | Percentage inhibition (%) at 1 mM concentration of the inhibitor [2] | inhibition as stated in text [3] | inhibition as stated in text [4] | inhibition at 1000 µM [4] | inhibition as stated in text [5] | inhibition at 1000 µM ([5]; pH 6.8, read-out: Percentage inhibition (%) at 1 mM concentration of the inhibitor) | inhibition as stated in text [6] | inhibition at 1000 µM ([6]; pH 7.2, read-out: Percentage inhibition (%) at 1 mM concentration of the inhibitor) | SMILES
1 | 41.1% | 12.3% | could inhibit | – | – | – | – | – | – | O=C1CC=C(CO)[C@@H](O)[C@H](O)[C@@H]1O [Compound 4, (5R,6S,7S)-5,6,7-Trihydroxy-4-(hydroxymethyl)cyclohept-3-enone]
2 | 3.3% | – | – | inhibited | 12.5% | – | – | – | – | OCC1=CC[C@H](O)[C@@H](O)[C@@H](O)[C@@H]1O [Compound 5, (1S,2R,3S,4R)-5-(Hydroxymethyl)cyclohept-5-ene-1,2,3,4-tetraol]
3 | 22.1% | 3.2% | – | – | – | inhibited | 41.7% | – | – | OCC1=CC[C@@H](O)[C@@H](O)[C@@H](O)[C@@H]1O [Compound 6, (1R,2R,3S,4R)-5-(Hydroxymethyl)cyclohept-5-ene-1,2,3,4-tetraol]
4 | 19.5% | 14.1% | – | inhibited | 10.6% | – | – | – | – | C[C@H]1CC[C@@H](O)[C@@H](O)[C@@H](O)[C@@H]1O [Compound 15, (1R,2R,3S,4R,5S)-5-Methylcycloheptane-1,2,3,4-tetraol]
5 | – | 29.8% | – | inhibited | 35.1% | – | – | inhibits | 12.8% | C[C@@H]1CC[C@@H](O)[C@@H](O)[C@@H](O)[C@@H]1O [Compound 16, (1R,2R,3S,4R,5R)-5-Methylcycloheptane-1,2,3,4-tetraol]
